Reference: PMC6901909, “Synergy Pattern of Short Cationic Antimicrobial Peptides Against Multidrug-Resistant Pseudomonas aeruginosa” (Frontiers in Microbiology, 2019)
Values after ≈ are worked out from the molar mass of the structure shown. Peptide text beside a SMILES is read from it.

Columns and labels:
Test in all cases: microbe, parasite or virus in culture
Assay type in all cases: cell-based, Pseudomonas aeruginosa
MDR P. aeruginosa PA253 = conditions: MDR PA253, 18 h
Experimental: (§1) We selected six different P. aeruginosa isolates that were described as MDR and had been isolated from clinical and municipal waste water ([Schwartz et al., 2006]). The minimal inhibitory concentration (MIC) was determined in a microdilution assay using Mueller-Hinton (MH) broth following a previously published protocol ([Wiegand et al., 2008]). Briefly, a twofold serial dilution of the antibiotics and peptides were prepared and added to a bacteria solution, resulting in 2–5 10^5 CFU/ml. The microtiter plates (polypropylene, Corning) were incubated for 18 h at 37°C and MICs were taken visually.

MDR P. aeruginosa PA 919 = conditions: MDR PA 919, 18 h
Experimental: as §1

P. aeruginosa PA01-wt = conditions: -wt, 18 h
Experimental: as §1

MDR P. aeruginosa PA 910 = conditions: MDR PA 910, 18 h
Experimental: as §1

Row | Structure (SMILES) | MIC against MDR isolates of PA, PA253 (MDR P. aeruginosa PA253) [µM] | MIC against MDR isolates of PA, PA919 (MDR P. aeruginosa PA 919) [µM] | MIC against PA01 wt (P. aeruginosa PA01-wt) [µM] | MIC against MDR isolates of PA, PA910 (MDR P. aeruginosa PA 910) [µM] | MIC against PA910 in μM (peptides, Table 4) (MDR P. aeruginosa PA 910) [µM]
1 | CC[C@H](C)[C@H](NC(=O)[C@H](CCCNC(=N)N)NC(=O)[C@H](C)NC(=O)[C@H](CC(C)C)NC(=O)[C@@H](N)CCCNC(=N)N)C(=O)N[C@H](C(=O)N[C@H](C(=O)N[C@H](C(=O)N[C@@H](CCCNC(=N)N)C(=O)N[C@@H](Cc1c[nH]c2ccccc12)C(=O)N[C@@H](C)C(=O)N[C@@H](CCCNC(=N)N)C(N)=O)[C@@H](C)CC)C(C)C)C(C)C [Peptide W10] (H-RLARIVVIRWAR-NH2) | 16 | 16 | 16 (≈ 24.1 µg/mL) | 16 | –
2 | CC[C@H](C)[C@H](NC(=O)[C@@H](N)Cc1ccccc1)C(=O)N[C@@H](CCCCN)C(=O)N[C@@H](CCCNC(=N)N)C(=O)N[C@@H](CCCCN)C(=O)N[C@@H](CO)C(=O)N[C@@H](CCCNC(=N)N)C(=O)N[C@@H](Cc1c[nH]c2ccccc12)C(=O)N[C@@H](Cc1c[nH]c2ccccc12)C(=O)N[C@@H](CCCCN)C(=O)N[C@@H](Cc1c[nH]c2ccccc12)C(=O)N[C@@H](CCCNC(=N)N)C(=O)N[C@H](C(N)=O)[C@@H](C)O [Indopt 6] (H-FIKRKSRWWKWRT-NH2) | 8 to 16 | 32 | 4 (≈ 7.51 µg/mL) | – | 8 (≈ 15 µg/mL)
3 | CC[C@H](C)[C@H](N)C(=O)N[C@@H](CC(C)C)C(=O)N[C@@H](CCCCN)C(=O)N[C@@H](Cc1c[nH]c2ccccc12)C(=O)N[C@@H](CCCCN)C(=O)N[C@@H](CCSC)C(=O)N[C@@H](Cc1ccccc1)C(=O)N[C@@H](CCCCN)C(=O)N[C@@H](Cc1c[nH]c2ccccc12)C(=O)N[C@@H](CCCCN)C(=O)N[C@@H](Cc1c[nH]c2ccccc12)C(=O)N[C@@H](Cc1ccccc1)C(=O)N[C@@H](CCCNC(=N)N)C(N)=O [Indopt 12] (H-ILKWKMFKWKWFR-NH2) | 16 | 16 | 2 (≈ 3.79 µg/mL) | – | 4 (≈ 7.59 µg/mL)
4 | CC[C@H](C)[C@H](NC(=O)[C@H](CCCNC(=N)N)NC(=O)[C@H](CCCNC(=N)N)NC(=O)[C@H](CC(C)C)NC(=O)[C@@H](N)CCCNC(=N)N)C(=O)N[C@H](C(=O)N[C@H](C(=O)N[C@H](C(=O)N[C@@H](CCCNC(=N)N)C(=O)N[C@H](C(=O)N[C@@H](C)C(=O)N[C@@H](CCCNC(=N)N)C(N)=O)C(C)C)[C@@H](C)CC)C(C)C)C(C)C [Peptide R3] (H-RLRRIVVIRVAR-NH2) | 16 | 16 | 16 (≈ 24.1 µg/mL) | – | 32 (≈ 48.2 µg/mL)
5 | N=C(N)NCCC[C@H](NC(=O)[C@H](CCCNC(=N)N)NC(=O)[C@@H](N)Cc1ccccc1)C(=O)N[C@@H](Cc1c[nH]c2ccccc12)C(=O)N[C@@H](Cc1c[nH]c2ccccc12)C(=O)N[C@@H](CCCCN)C(=O)N[C@@H](Cc1c[nH]c2ccccc12)C(=O)N[C@@H](Cc1ccccc1)C(=O)N[C@@H](CCCCN)C(N)=O [HHC-53] (H-FRRWWKWFK-NH2) | 8 | 16 | 8 (≈ 11.5 µg/mL) | – | 32 (≈ 46 µg/mL)
6 | CC[C@H](C)[C@H](NC(=O)[C@@H](N)Cc1ccccc1)C(=O)N[C@@H](CCCCN)C(=O)N[C@@H](Cc1c[nH]c2ccccc12)C(=O)N[C@@H](CCCCN)C(=O)N[C@@H](Cc1ccccc1)C(=O)N[C@@H](CCCNC(=N)N)C(=O)N1CCC[C@H]1C(=O)N[C@@H](Cc1c[nH]c2ccccc12)C(=O)N[C@@H](CCCCN)C(=O)N[C@@H](CCCCN)C(=O)N[C@@H](CCCNC(=N)N)C(=O)N[C@H](C(N)=O)[C@@H](C)O [Indopt 5] (H-FIKWKFRPWKKRT-NH2) | 16 | 16 to 32 | 4 (≈ 7.28 µg/mL) | – | 8 (≈ 14.6 µg/mL)
7 | CC[C@H](C)[C@H](N)C(=O)N[C@@H](CC(C)C)C(=O)N[C@@H](CCCCN)C(=O)N[C@@H](Cc1c[nH]c2ccccc12)C(=O)N[C@@H](CCCCN)C(=O)N[C@H](C(=O)N[C@@H](Cc1ccccc1)C(=O)N[C@@H](CCCCN)C(=O)N[C@@H](Cc1c[nH]c2ccccc12)C(=O)N[C@@H](CCCCN)C(=O)N[C@@H](Cc1c[nH]c2ccccc12)C(=O)N[C@@H](Cc1ccccc1)C(=O)N[C@@H](CCCNC(=N)N)C(N)=O)[C@@H](C)CC [Indopt 10] (H-ILKWKIFKWKWFR-NH2) | 8 to 16 | 32 | 2 (≈ 3.76 µg/mL) | – | 4 (≈ 7.51 µg/mL)
8 | CC[C@H](C)[C@H](NC(=O)[C@@H](N)Cc1ccccc1)C(=O)N[C@@H](CCCCN)C(=O)N[C@@H](Cc1c[nH]c2ccccc12)C(=O)N[C@@H](CCCNC(=N)N)C(=O)N[C@@H](Cc1ccccc1)C(=O)N[C@@H](CCCNC(=N)N)C(=O)N[C@@H](CCCNC(=N)N)C(=O)N[C@@H](Cc1c[nH]c2ccccc12)C(=O)N[C@@H](CCCCN)C(=O)N[C@@H](CCCCN)C(=O)N[C@@H](CCCNC(=N)N)C(=O)N[C@@H](CCCCN)C(N)=O [Indopt 4] (H-FIKWRFRRWKKRK-NH2) | 8 | 16 to 32 | 4 (≈ 7.74 µg/mL) | 4 to 8 | 4 to 8
